Assay results published in ChEMBL document CHEMBL3832761, “MMV Pathogen Box Bioactivity Data” (2017).
In brackets after ≈: the same amount, converted by molar mass.

What was measured:
Type in all cases: functional
[1] = test system: Mycobacterium tuberculosis; assay: (§1) AntiMycobacterium tuberculosis activity day 10 in 7H9/2.5mM butyrate/pH6/0.1mM nitrite MIC90 (uM); settings: 240 h
HepG2 = assay: HepG2 CC50 (uM) Cytotoxicity; settings: Homo sapiens
[2] = test system: Mycobacterium tuberculosis; assay: AntiMycobacterium tuberculosis activity Non-Replicating form: Average MIC90 (uM)
[3] = test system: Mycobacterium tuberculosis; assay: AntiMycobacterium tuberculosis activity 2-week GAST/Fe MIC (uM); settings: 336 h
[4] = test system: Mycobacterium tuberculosis; assay: AntiMycobacterium tuberculosis activity 1-week 7H9/cholesterol/BSA/Tx MIC (uM); settings: 168 h
[5] = test system: Mycobacterium tuberculosis; assay: AntiMycobacterium tuberculosis activity day 21 MIC99 in 7H9/2.5mM butyrate/pH6/0.1mM nitrite MIC99 (uM); settings: 504 h
[6] = test system: Mycobacterium tuberculosis; assay: AntiMycobacterium tuberculosis activity 2-week Alamar Blue 7H9/ADC/Tw MIC (uM); settings: 336 h
[7] = test system: Mycobacterium tuberculosis; assay: AntiMycobacterium tuberculosis activity 1-week 7H9/ADC/Tw MIC (uM); settings: 168 h
[8] = test system: Mycobacterium tuberculosis; assay: AntiMycobacterium tuberculosis activity day 21 in 7H9/2.5mM butyrate/pH6/0.1mM nitrite MIC90 (uM); settings: 504 h
[9] = test system: Mycobacterium tuberculosis; assay: AntiMycobacterium tuberculosis activity 1-week GAST/Fe MIC (uM); settings: 168 h
[10] = test system: Mycobacterium tuberculosis; assay: AntiMycobacterium tuberculosis activity 1-week 7H9/glucose/BSA/Tx MIC (uM); settings: 168 h
[11] = test system: Mycobacterium tuberculosis; assay: AntiMycobacterium tuberculosis activity 1-week 7H9/DPPC/cholesterol/BSA/Tx MIC (uM); settings: 168 h
[12] = test system: Mycobacterium tuberculosis; assay: AntiMycobacterium tuberculosis activity 2-week 7H9/glucose/BSA/Tx MIC (uM); settings: 336 h
[13] = test system: Mycobacterium tuberculosis; assay: AntiMycobacterium tuberculosis activity 2-week 7H9/ADC/Tw MIC (uM); settings: 336 h
[14] = test system: Mycobacterium tuberculosis; assay: as §1; settings: 240 h; remark: listed apart in the source
[15] = test system: Mycobacterium tuberculosis; assay: AntiMycobacterium tuberculosis activity 2-week 7H9/DPPC/cholesterol/BSA/Tx MIC (uM); settings: 336 h
[16] = test system: Mycobacterium tuberculosis; assay: AntiMycobacterium tuberculosis activity Replicating form: Average MIC90 (uM)
[17] = test system: Mycobacterium tuberculosis; assay: AntiMycobacterium tuberculosis activity 2-week Alamar Blue 7H9/cholesterol/BSA/Tx MIC (uM); settings: 336 h

Structure (SMILES): Cc1cc(Cl)ccc1NC(=O)CCc1ccc(S(=O)(=O)NCC(C)C)cc1
- MIC90 [1]: > 50 µM
- CC50 (HepG2): > 100 µM
- MIC90 [2]: 13.4 µM (≈ 5.49 µg/mL)
- MIC [3]: 2.3 µM (≈ 0.941 µg/mL)
- MIC [4]: 3.13 µM (≈ 1.28 µg/mL)
- MIC [5]: 50 µM (≈ 20.4 µg/mL)
- MIC [6]: 6.25 µM (≈ 2.56 µg/mL)
- MIC [7]: 4.7 µM (≈ 1.92 µg/mL)
- MIC90 [8]: 25 µM (≈ 10.2 µg/mL)
- MIC [9]: 2.3 µM (≈ 0.941 µg/mL)
- MIC [10]: 4.7 µM (≈ 1.92 µg/mL)
- MIC [11]: 3.13 µM (≈ 1.28 µg/mL)
- MIC [12]: 6.25 µM (≈ 2.56 µg/mL)
- MIC [13]: 6.25 µM (≈ 2.56 µg/mL)
- MIC90 [14]: > 50 µM
- MIC [15]: 3.13 µM (≈ 1.28 µg/mL)
- MIC90 [16]: 14.4 µM (≈ 5.87 µg/mL)
- MIC [17]: 6.25 µM (≈ 2.56 µg/mL)

Structure (SMILES): Cc1cc(O)nc(-n2nc(C)cc2C)n1
- MIC90 [1]: 6.25 µM (≈ 1.28 µg/mL)
- CC50 (HepG2): 60.7 µM
- MIC90 [2]: > 43.3 µM
- MIC [3]: 4.7 µM (≈ 0.96 µg/mL)
- MIC [4]: 25 µM (≈ 5.11 µg/mL)
- MIC [5]: 12.5 µM (≈ 2.55 µg/mL)
- MIC [6]: 50 µM (≈ 10.2 µg/mL)
- MIC [7]: 37 µM (≈ 7.56 µg/mL)
- MIC90 [8]: 12.5 µM (≈ 2.55 µg/mL)
- MIC [9]: 1.56 µM (≈ 0.319 µg/mL)
- MIC [10]: 25 µM (≈ 5.11 µg/mL)
- MIC [11]: 50 µM (≈ 10.2 µg/mL)
- MIC [12]: > 50 µM
- MIC [13]: 50 µM (≈ 10.2 µg/mL)
- MIC90 [14]: 25 µM (≈ 5.11 µg/mL)
- MIC [15]: > 50 µM
- MIC90 [16]: > 100 µM
- MIC [17]: 25 µM (≈ 5.11 µg/mL)

Structure (SMILES): COc1ccccc1OCCCCn1c(C2CC2)nc2ccccc21
- MIC90 [1]: 6.25 µM (≈ 2.1 µg/mL)
- CC50 (HepG2): 100 µM
- MIC90 [2]: 16.4 µM (≈ 5.52 µg/mL)
- MIC [3]: 0.6 µM (≈ 0.202 µg/mL)
- MIC [4]: 3.13 µM (≈ 1.05 µg/mL)
- MIC [5]: > 50 µM
- MIC [6]: 19 µM (≈ 6.39 µg/mL)
- MIC [7]: > 50 µM
- MIC90 [8]: 25 µM (≈ 8.41 µg/mL)
- MIC [9]: 0.2 µM (≈ 0.0673 µg/mL)
- MIC [10]: 37 µM (≈ 12.4 µg/mL)
- MIC [11]: 9.4 µM (≈ 3.16 µg/mL)
- MIC [12]: > 50 µM
- MIC [13]: > 50 µM
- MIC90 [14]: 50 µM (≈ 16.8 µg/mL)
- MIC [15]: 37 µM (≈ 12.4 µg/mL)
- MIC90 [16]: > 100 µM
- MIC [17]: 4.7 µM (≈ 1.58 µg/mL)

Structure (SMILES): CC(C)(C(=O)Nc1ccc(F)cc1)n1cc(-c2ccccc2F)cn1
- MIC90 [1]: 6.25 µM (≈ 2.13 µg/mL)
- CC50 (HepG2): > 100 µM
- MIC90 [2]: 3.6 µM (≈ 1.23 µg/mL)
- MIC [3]: 2.3 µM (≈ 0.785 µg/mL)
- MIC [4]: 0.6 µM (≈ 0.205 µg/mL)
- MIC [5]: 12.5 µM (≈ 4.27 µg/mL)
- MIC [6]: 2.3 µM (≈ 0.785 µg/mL)
- MIC [7]: 1.56 µM (≈ 0.533 µg/mL)
- MIC90 [8]: 6.25 µM (≈ 2.13 µg/mL)
- MIC [9]: 2.3 µM (≈ 0.785 µg/mL)
- MIC [10]: 3.13 µM (≈ 1.07 µg/mL)
- MIC [11]: 2.3 µM (≈ 0.785 µg/mL)
- MIC [12]: 3.13 µM (≈ 1.07 µg/mL)
- MIC [13]: 1.56 µM (≈ 0.533 µg/mL)
- MIC90 [14]: 12.5 µM (≈ 4.27 µg/mL)
- MIC [15]: 1.56 µM (≈ 0.533 µg/mL)
- MIC90 [16]: 4.51 µM (≈ 1.54 µg/mL)
- MIC [17]: 1.56 µM (≈ 0.533 µg/mL)

Structure (SMILES): COc1cccc(-n2nnnc2S(C)(=O)=O)c1
- MIC90 [1]: 6.25 µM (≈ 1.59 µg/mL)
- CC50 (HepG2): 1.7 µM
- MIC90 [2]: 3.34 µM (≈ 0.849 µg/mL)
- MIC [3]: 1.2 µM (≈ 0.305 µg/mL)
- MIC [4]: 19 µM (≈ 4.83 µg/mL)
- MIC [5]: 12.5 µM (≈ 3.18 µg/mL)
- MIC [6]: 25 µM (≈ 6.36 µg/mL)
- MIC [7]: 12.5 µM (≈ 3.18 µg/mL)
- MIC90 [8]: 12.5 µM (≈ 3.18 µg/mL)
- MIC [9]: 0.78 µM (≈ 0.198 µg/mL)
- MIC [10]: 9.4 µM (≈ 2.39 µg/mL)
- MIC [11]: 12.5 µM (≈ 3.18 µg/mL)
- MIC [12]: 25 µM (≈ 6.36 µg/mL)
- MIC [13]: 25 µM (≈ 6.36 µg/mL)
- MIC90 [14]: 6.25 µM (≈ 1.59 µg/mL)
- MIC [15]: 50 µM (≈ 12.7 µg/mL)
- MIC90 [16]: 9.47 µM (≈ 2.41 µg/mL)
- MIC [17]: 50 µM (≈ 12.7 µg/mL)

Structure (SMILES): COc1ccc(Nc2ccccc2NC(=O)c2ccc(O)nc2)cc1
- MIC90 [1]: 1.5 µM (≈ 0.503 µg/mL)
- CC50 (HepG2): 42.5 µM
- MIC90 [2]: 17.8 µM (≈ 5.97 µg/mL)
- MIC [3]: < 0.02 µM
- MIC [4]: 0.3 µM (≈ 0.101 µg/mL)
- MIC [5]: > 50 µM
- MIC [6]: 12.5 µM (≈ 4.19 µg/mL)
- MIC [7]: 37 µM (≈ 12.4 µg/mL)
- MIC90 [8]: 6.25 µM (≈ 2.1 µg/mL)
- MIC [9]: < 0.02 µM
- MIC [10]: 37 µM (≈ 12.4 µg/mL)
- MIC [11]: 0.6 µM (≈ 0.201 µg/mL)
- MIC [12]: 37 µM (≈ 12.4 µg/mL)
- MIC [13]: 37 µM (≈ 12.4 µg/mL)
- MIC90 [14]: > 50 µM
- MIC [15]: 2.3 µM (≈ 0.771 µg/mL)
- MIC90 [16]: 28.6 µM (≈ 9.59 µg/mL)
- MIC [17]: 0.6 µM (≈ 0.201 µg/mL)

Structure (SMILES): O=C(NC1=NCCS1)c1sc2cc(F)ccc2c1Cl
- MIC90 [1]: 3.12 µM (≈ 0.982 µg/mL)
- CC50 (HepG2): > 100 µM
- MIC90 [2]: 39.3 µM (≈ 12.4 µg/mL)
- MIC [3]: 1.2 µM (≈ 0.378 µg/mL)
- MIC [4]: 3.13 µM (≈ 0.985 µg/mL)
- MIC [5]: 12.5 µM (≈ 3.93 µg/mL)
- MIC [6]: 9.4 µM (≈ 2.96 µg/mL)
- MIC [7]: > 50 µM
- MIC90 [8]: 12.5 µM (≈ 3.93 µg/mL)
- MIC [9]: 0.6 µM (≈ 0.189 µg/mL)
- MIC [10]: > 50 µM
- MIC [11]: 6.25 µM (≈ 1.97 µg/mL)
- MIC [12]: > 50 µM
- MIC [13]: > 50 µM
- MIC90 [14]: 3.12 µM (≈ 0.982 µg/mL)
- MIC [15]: > 50 µM
- MIC90 [16]: > 100 µM
- MIC [17]: 3.13 µM (≈ 0.985 µg/mL)
